# Assay results reported in US20090232731A1, “Cationic Liposomal Preparations for the Treatment of Rheumatoid Arthritis” (priority 2006, published 2009).
# Columns and labels:
# [1] = test system: collagen induced arthritis; assay: Collagen induced arthritis in DBA/1 mice, clinical arthritis score (EndoMTX); assay type: in vivo; conditions: day 34; i.v. 3 times a week from day 15, 5.0 mg/kg methotrexate where loaded
# Procedure: Male DBA/1 mice with an age of ten weeks at arrival were purchased from Taconic Europe and housed in isolated cages under save environmental conditions (Five mice per cage, 22° C., 30-70% humidity and 12 h light/dark cycle) with food and water ad libitum. Experimental design was reviewed and approved by local government.
# Mice were assigned to the experimental groups acclimated at least 7 days before induction of collagen induced arthritis. Animals were anesthetized intraperitoneally (i.p.) with a mixture of Xylazin and Ketamin. Each animal obtained 4 ml/kg as application volume. 0.5 ml Rompun (20 mg/ml Xylazin) and 1 ml Ketamin (100 mg/ml Ketamin) were mixed (1:2) and diluted 1:4 in 4.5 ml 0.9% NaCl. 2. For the Collagen Type II-CFA emulsions, Collagen (bovine, 4 mg/ml) was mixed 1:1 with CFA by repeated passage through a flexible tube connecting two 1-ml syringes (syringe-syringe-method). This mixture was kept on ice and will be applied within 4 hours after preparation. For the immunization 100 μl Collagen/CFA-emulsion was injected subcutaneously at the base of the tail. The injection of Collagen/CFA-emulsion was done once on day 0 and once as a booster immunization on day 21. After two weeks the animals were controlled for symptoms of collagen induced arthritis (CIA) by joint scoring three times a week. […]
# [2] = test system: collagen induced arthritis; assay: Collagen induced arthritis in B10RIII mice, clinical arthritis score (EndoTAG-1); assay type: in vivo; conditions: endpoint day 11; i.v. every second day; paclitaxel 2.56 mg/kg, Enbrel 10 mg/kg
Compound,order of antiarthritic efficacy (mean clinical arthritis score) [1],order of antiarthritic efficacy (mean clinical arthritis score) [2]
"CN(Cc1cnc2nc(N)nc(N)c2n1)c1ccc(C(=O)N[C@@H](CCC(=O)O)C(=O)O)cc1 [MTX, N-[4-[[(2,4-diamino-6-pteridinyl)methyl]methylamino]benzoyl]-L-glutamic acid]",EndoMTX>EndoMTX placebo>MTX,
Enbrel,,Enbrel>EndoTAG-1>EndoTAG-1 placebo and Taxol®
